The values that follow are results of earlier work, collected in patent publication US20210220430A1, “USE OF NOD2 AGONIST FOR THE TREATMENT, PROPHYLAXIS AND/OR DELAY OF THE ONSET OF MULTIPLE SCLEROSIS AND ALZHEIMER?S DISEASE” (UNIVERSITE LAVAL, priority 2018, published 2021).

The series has as its target NOD2 (Homo sapiens, UniProt Q9HC29). The following applies: compared with classical N-acetyl MDP.

Sequence of NOD2 (Q9HC29 whole entry, species assumed): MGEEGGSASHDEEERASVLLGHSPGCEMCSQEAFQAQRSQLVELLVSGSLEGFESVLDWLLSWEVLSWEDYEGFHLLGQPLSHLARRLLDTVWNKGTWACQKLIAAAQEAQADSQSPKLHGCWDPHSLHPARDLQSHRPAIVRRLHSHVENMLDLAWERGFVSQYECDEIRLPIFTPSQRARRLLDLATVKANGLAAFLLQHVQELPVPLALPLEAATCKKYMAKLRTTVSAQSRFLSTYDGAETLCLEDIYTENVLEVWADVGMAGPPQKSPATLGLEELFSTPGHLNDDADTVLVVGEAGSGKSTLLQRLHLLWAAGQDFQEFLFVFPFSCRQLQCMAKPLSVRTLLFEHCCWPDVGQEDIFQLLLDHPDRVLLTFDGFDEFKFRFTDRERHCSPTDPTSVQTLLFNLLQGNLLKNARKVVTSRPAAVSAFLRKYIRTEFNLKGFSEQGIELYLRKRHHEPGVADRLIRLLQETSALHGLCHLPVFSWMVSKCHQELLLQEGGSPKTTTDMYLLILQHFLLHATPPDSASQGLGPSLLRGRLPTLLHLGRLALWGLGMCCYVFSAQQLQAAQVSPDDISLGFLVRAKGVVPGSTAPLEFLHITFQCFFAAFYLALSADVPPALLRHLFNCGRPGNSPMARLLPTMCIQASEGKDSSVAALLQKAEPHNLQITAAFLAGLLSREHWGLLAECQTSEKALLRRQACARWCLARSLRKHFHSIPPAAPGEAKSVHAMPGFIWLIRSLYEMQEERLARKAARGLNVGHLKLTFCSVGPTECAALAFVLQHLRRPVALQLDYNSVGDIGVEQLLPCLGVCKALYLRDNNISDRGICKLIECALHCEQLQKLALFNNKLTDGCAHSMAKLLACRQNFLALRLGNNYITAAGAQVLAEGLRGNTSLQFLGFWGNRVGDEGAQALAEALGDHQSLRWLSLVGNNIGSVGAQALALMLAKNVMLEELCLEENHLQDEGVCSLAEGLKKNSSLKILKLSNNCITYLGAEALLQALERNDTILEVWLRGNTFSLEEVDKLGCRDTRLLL

Regarding `C[C@@H](NC(=O)[C@@H](C)OC1C(NC(=O)CO)[C@@H](O)OC(CO)[C@H]1O)C(=O)NC(CCC(=O)O)C(N)=O` (stereo partly shown) [N-glycolyl MDP], the “NOD2 agonist potency at stimulating inflammatory genes” value is “more potent”.
